Experimental data published in paper PMC10592352 (Cell chemical biology, 2023).

How the values were obtained:
[1] = ES1e mice, oral, 40 mg/kg; cited from earlier work
[2] = Concentration reached in aqueous buffer for co-crystallization; assay type: physicochemical; conditions: aqueous buffer with 10% DMSO
[3] = GLP-controlled toxicity study; parameters: species or system dogs; conditions: dog, in vivo
[4] = system: SK-N-BE(2)c neuroblastoma xenograft; assay: Xenograft tumor growth; conditions: 40 mg/kg twice daily
[5] = system: more than 70 cancer cell lines; assay: Growth inhibition across cancer cell lines; assay type: cell-based; conditions: read-out: median concentration to achieve 50% growth inhibition (GI50)
PCNA = PCNA (Homo sapiens, UniProt P12004); assay: Thermal denaturation; assay type: binding; conditions: dose-dependent, largest shift
[6] = system: Salmonella tester strains TA98 and TA100; assay: Ames test; conditions: TA98 frameshift, TA100 base pair substitution
[7] = system: MDA-MB-468 breast cancer xenograft; assay: Xenograft tumor growth; conditions: MDA-MB-468 xenograft, 40 mg/kg twice daily, oral
Oral PK study in mice = assay type: in vivo, ES1e/SCID mice
[8] = system: H82 small-cell lung cancer xenograft; assay: Xenograft tumor growth; conditions: 40 mg/kg twice daily, oral
[9] = GLP-controlled toxicity study; parameters: species or system mice; conditions: mouse, in vivo
[10] = system: human PBMCs, small airway epithelial cells (hSEAC), neural crest stem cells (7SM0032); assay: Growth of nonmalignant cells; assay type: cell-based

Chain of PCNA (P12004 whole entry): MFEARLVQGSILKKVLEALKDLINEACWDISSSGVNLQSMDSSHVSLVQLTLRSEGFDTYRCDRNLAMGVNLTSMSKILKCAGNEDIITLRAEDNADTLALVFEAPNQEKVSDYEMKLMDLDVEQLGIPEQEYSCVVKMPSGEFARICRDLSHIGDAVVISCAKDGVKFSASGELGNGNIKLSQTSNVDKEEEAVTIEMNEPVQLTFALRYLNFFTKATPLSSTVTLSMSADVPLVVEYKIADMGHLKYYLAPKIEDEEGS

## O=C(CNC(=O)c1cccc2ccccc12)Nc1ccccc1Oc1ccccc1 [AOH1160]
[1]
  half-life: 3.4 h

## COc1cccc(Oc2ccccc2NC(=O)[C@H](CCC(=O)O)NC(=O)c2cccc3ccccc23)c1 [AOH1996LE]
[2]
  concentration in aqueous buffer: 4000 µM

## COc1cccc(Oc2ccccc2NC(=O)CNC(=O)c2cccc3ccccc23)c1 [AOH1996]
[3]
  NOAEL at 4 weeks: 75 mg/kg
[4]; SK-N-BE(2)c xenograft, oral
  tumor burden versus vehicle: significantly reduced the tumor burden
[4]; xenograft-bearing ES1e/SCID mice
  death and body weight in tumor studies: did not cause any death or significant weight loss
[5]
  GI50: ~300 nM
PCNA
  shift of protein melting curves: ≤ 1.5 °C
[6]
  mutagenicity in Ames test: does not cause frameshift or base pair substitution
[7]
  tumor burden versus vehicle: significantly reduced the tumor burden
Oral PK study in mice; animals, data not shown
  absorption into the circulatory system: ~90%
Oral PK study in mice; mice, 40 mg/kg
  increase in area under the curve (AUC) versus AOH1160: ~4%
  increase in half-life versus AOH1160: ~ 27%
  increase in peak concentration (Cmax) versus AOH1160: ~40%
[8]
  tumor burden versus vehicle: significantly reduced the tumor burden
[9]
  NOAEL at 4 weeks: ≥ 250 mg/kg
[10]
  concentration not significantly toxic to nonmalignant cells: at least 10 μM
